This note sets out measurements from patent US20140221283A1 (Indiana University Research and Technology Corporation, priority 2011, published 2014).

The nature of assay [1]: ambient glucose levels of DIO mice dosed daily for nine days (Example 7). The format is in vivo. The note with it: for decrease in ambient glucose vs. vehicle: by Day 4. The method, then:
(§1) Mice were administered a vehicle control or a dose of a peptide daily for nine days. The peptides tested in this study included a peptide of SEQ ID NO: 12, a peptide of SEQ ID NO: 17, a peptide of SEQ ID NO: 18, and a peptide of SEQ ID NO: 19. Doses of each peptide were varied—each of the peptides of SEQ ID NO: 12, 17, and 19 was administered at a dose of either 3 nmol/kg or 9 nmol/kg, while the peptide of SEQ ID NO: 18 was administered at a dose of 1 nmol/kg, 3 nmol/kg, or 9 nmol/kg. Data are expressed as mean±SEM.
In addition to cumulative body weight change, ambient glucose levels of the DIO mice were measured.

Assay [2] can be described thus: body weight of diet-induced obese (DIO) mice dosed daily for nine days (Example 7). The assay is classed as in vivo. As to conditions: Day 9; for body weight reduction: 3 nmol/kg daily; for body weight loss: 9 nmol/kg daily. The method, then:
as §1

*1 amine or outer side, *2 acyl side, *3 side chain or, on linkers, in order; H or OH if unused. Where no end group is shown, it is not given here. Side-chain parts run from the residue outwards. [ ]: non-standard residue; d: D form. The star is where a group is joined. γGlu = O=C(O)[C@H](CCC(=O)[*:2])N[*:1]; Palmitoyl = CCCCCCCCCCCCCCCC(=O)*

For the substance “SEQ ID NO: 19: peptide of SEQ ID NO: 19 tested in DIO mice; sequence only in the sequence listing (H[dS]QGTFTSDK([γGlu-Palmitoyl])SKYLDERAAQDFVQWLLDT-NH2; N-terminus assumed; SMILES CCCCCCCCCCCCCCCC(=O)N[C@@H](CCC(=O)NCCCC[C@H](NC(=O)[C@H](CC(=O)O)NC(=O)[C@H](CO)NC(=O)[C@@H](NC(=O)[C@H](Cc1ccccc1)NC(=O)[C@@H](NC(=O)CNC(=O)[C@H](CCC(N)=O)NC(=O)[C@@H](CO)NC(=O)[C@@H](N)Cc1c[nH]cn1)[C@@H](C)O)[C@@H](C)O)C(=O)N[C@@H](CO)C(=O)N[C@@H](CCCCN)C(=O)N[C@@H](Cc1ccc(O)cc1)C(=O)N[C@@H](CC(C)C)C(=O)N[C@@H](CC(=O)O)C(=O)N[C@@H](CCC(=O)O)C(=O)N[C@@H](CCCNC(=N)N)C(=O)N[C@@H](C)C(=O)N[C@@H](C)C(=O)N[C@@H](CCC(N)=O)C(=O)N[C@@H](CC(=O)O)C(=O)N[C@@H](Cc1ccccc1)C(=O)N[C@H](C(=O)N[C@@H](CCC(N)=O)C(=O)N[C@@H](Cc1c[nH]c2ccccc12)C(=O)N[C@@H](CC(C)C)C(=O)N[C@@H](CC(C)C)C(=O)N[C@@H](CC(=O)O)C(=O)N[C@H](C(N)=O)[C@@H](C)O)C(C)C)C(=O)O)”, the “decrease in glucose levels compared to vehicle control mice” value in assay [1] (9 nmol/kg daily, Day 4) was around 40%; in assay [1] (9 nmol/kg daily, Day 7), around 39%; in assay [1] (9 nmol/kg daily, Day 9), around 26%. In assay [2], this substance had a body weight reduction of around 8.1%. For the same substance, the body weight loss in assay [2] was around 31.5%.

With “SEQ ID NO: 18: peptide of SEQ ID NO: 18 tested in DIO mice; sequence only in the sequence listing (HXQGTFTSDKSKYLDERAAQDFVQWLMDT; not fully specified; Xaa is AIB; Acylated with a C16 fatty acyl group via gamma- Glu-gamma-Glu spacer; C-terminal amidation)”, in assay [1] (3 nmol/kg daily), the “decrease in ambient glucose vs. vehicle” value is recorded as −29%. For the same substance, the “decrease in ambient glucose vs. vehicle” value in assay [1] (9 nmol/kg daily) is −29%. In assay [2], the body weight reduction was around 12.3% and the body weight loss is listed as around 26.8%.
